Experimental data: US20140147467A1, “Novel broth medium and blood free solid media” (priority 2012, published 2014)
≈ marks a conversion by molar mass, not a printed value. Like-named read-outs stand apart in the source and are kept apart here.

Tested on: P. salmonis
Experiment: MIC by broth micro dilution in Austral-SRS broth
Assay type: cell-based
Conditions: Piscirickettsia salmonis
[1] = P. salmonis ATCC VR-1361 (type strain), 18° C., read-out: MIC value
[2] = P. salmonis isolates (austral-005), 18° C., n=10, read-out: MIC values

Structure (SMILES) | MIC [µg/mL] | MIC [1] [µg/mL] | MIC [2] [µg/mL]
CS(=O)(=O)c1ccc([C@@H](O)[C@@H](CF)NC(=O)C(Cl)Cl)cc1 [florfenicol] | 0.5 (≈ 1.4 µM) | 0.25 to 0.5 (≈ 0.698 to 1.4 µM) | 0.25 to 0.5 (≈ 0.698 to 1.4 µM)
CN(C)[C@@H]1C(O)=C(C(N)=O)C(=O)[C@@]2(O)C(O)=C3C(=O)c4c(O)cccc4[C@@](C)(O)[C@H]3[C@H](O)[C@@H]12 [oxytetracycline] | 0.124 (≈ 0.269 µM) | 0.25 to 0.5 (≈ 0.543 to 1.09 µM) | 0.125 to 2.5 (≈ 0.271 to 5.43 µM)
